Where no end group is shown, it is not given here. The star is where a group is joined. Octanoyl = CCCCCCCC(=O)*

In general, Ki refers to the dissociation constant of the complex between target and ligand, obtained from inhibition or displacement. A high value points to weaker binding.

The target of assay [1] is GHS-R (Homo sapiens, UniProt Q92847). Put plainly: GHS-R antagonist activity, cell based assay (Table 3). Particulars: GHS-R antagonist activity in a cell based assay.
Assay [2] has as its system oxidative burst in inflammatory cells. Put plainly: Oxidative burst (ROS) in inflammatory cells from brain tissue after mild brain injury (controlled cortical impact). Format: in vivo. The conditions noted are these: C57/B6 mice, mild BI by controlled cortical impactor, subcutaneous treatment, leukocytes isolated from brain tissue, DHR 123 flow cytometry, compared to mBI. The procedure:
Ghrelin variant administration reduces oxidative burst in inflammatory cells following mild BI. Since no well-accepted animal model exists for concussions, a very small cerebral lesion that closely mimics mild BI is used as a model of mild BI. C57/B6 mice anesthetized with 5% isoflurane in oxygen (1.7 L/min) are given 0.3 mg/kg buprenorphine subcutaneously for analgesia prior to infliction of the mild brain injury. Anesthesia is assessed by paw pinch reflex. After creating a burr hole through the dura with a dental drill, a lesion using a controlled cortical impactor (CCI) is used to create injury 1 mm lateral and posterior to the bregma (5.0 mm/sec at a depth of 1.0 mm).
Animals are separated into three treatment groups: 1) Sham, 2) mild BI, and 3) mild BI plus ghrelin variant. A variety of doses can be tested depending upon the particular ghrelin variant. For example, 1 to 50 μg at one or more time points. As one example, treatment with subcutaneous ghrelin variant: 1 dose of 10 μg following mild BI and additional dose 10 μg 1 hour after. […] The fluorescence is then measured (AFU), higher intensity means greater oxidative burst and, therefore greater concentration or amount of ROS. […] Oxidative burst, which is a marker for ROS, can be measured by respiratory burst using flow cytometry (e.g., FL1 channel with 488-nm laser).
A general note: In flow cytometry, cells or beads pass a laser one at a time.

Sequence of GHS-R (Q92847 whole entry): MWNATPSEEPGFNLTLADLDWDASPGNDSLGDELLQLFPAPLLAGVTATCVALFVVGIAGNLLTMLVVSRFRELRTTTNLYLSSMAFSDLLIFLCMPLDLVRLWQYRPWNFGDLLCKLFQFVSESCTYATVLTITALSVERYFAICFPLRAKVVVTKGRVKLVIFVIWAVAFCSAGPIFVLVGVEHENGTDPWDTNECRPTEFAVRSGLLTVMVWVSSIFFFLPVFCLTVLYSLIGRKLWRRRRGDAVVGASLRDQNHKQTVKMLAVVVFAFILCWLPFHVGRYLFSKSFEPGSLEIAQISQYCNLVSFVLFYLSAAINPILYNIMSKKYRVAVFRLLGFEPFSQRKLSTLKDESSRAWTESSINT

Regarding `CCN(CC)CCCS(=O)(=O)N[C@H](CCc1ccccc1)c1nc(-c2cncn2C)n[nH]1` [Compound 135], the Ki in assay [1] was < 100 nM.

As for “ghrelin (GSS(Octanoyl)FLSPEHQRVQQRKESKKPPAKLQPR)”, the “oxidative burst in inflammatory cells following mBI, quantified by arbitrary fluorescence unit (AFU)” value in assay [2] is “reduced the oxidative burst compared to mBI”.
